Values quoted from earlier work in patent US20220378704A1, “PROCESS FOR THE PREPARATION OF A NANOPARTICULATE ACTIVE INGREDIENT” (Bayer Aktiengesellschaft, priority 2019, published 2022).

Experiments:
[1] = within 5 min

- dissolution rate [1]: 35%
- specific surface area (before / after LASP process in the MCR): 0.66 m^2/g
- mean particle size (before LASP process): 55 μm
SMILES: C#C[C@]1(O)CC[C@H]2[C@@H]3CCC4=Cc5oncc5C[C@]4(C)[C@H]3CC[C@@]21C [raw danazol particles, danazol]
